This note sets out measurements from ChEMBL document CHEMBL1649268, “Comparative in vitro activity profile of oritavancin against recent gram-positive clinical isolates” (2009).

Holding throughout (assay type): functional
The subject of test [1] is Streptococcus pneumoniae. Nature of the test: Antimicrobial activity against penicillin-susceptible Streptococcus pneumoniae clinical isolates by broth microdilution method in presence of clavulanate. (In general: Broth dilution looks for growth in wells or tubes with falling amounts of substance.)
Test [2] deals with Streptococcus pneumoniae. Nature of the test: Antimicrobial activity against Streptococcus pneumoniae clinical isolates by broth microdilution method in presence of clavulanate.
Test [3] concerns Streptococcus pneumoniae. Nature of the test: Antimicrobial activity against penicillin-resistant Streptococcus pneumoniae clinical isolates by broth microdilution method in presence of clavulanate.
The subject of test [4] is Streptococcus pneumoniae. Nature of the test: Antimicrobial activity against penicillin-resistant Streptococcus pneumoniae clinical isolates assessed as resistant isolates by broth microdilution method in presence of clavulanate.
Test [5] has as its system Streptococcus pneumoniae. Kind of test: Antimicrobial activity against penicillin-susceptible Streptococcus pneumoniae clinical isolates assessed as resistant isolates by broth microdilution method in presence of clavulanate.
In test [6] the test system is Streptococcus pneumoniae. Kind of test: Antimicrobial activity against penicillin-intermediate Streptococcus pneumoniae clinical isolates assessed as resistant isolates by broth microdilution method in presence of clavulanate.
Test [7] concerns Streptococcus pneumoniae. Kind of test: Antimicrobial activity against penicillin-intermediate Streptococcus pneumoniae clinical isolates assessed as percent susceptible isolates by broth microdilution method in presence of clavulanate.
In test [8] the test system is Streptococcus pneumoniae. Nature of the test: Antimicrobial activity against penicillin-intermediate Streptococcus pneumoniae clinical isolates by broth microdilution method in presence of clavulanate.
The test system of test [9] is Streptococcus pneumoniae. Kind of test: Antimicrobial activity against penicillin-resistant Streptococcus pneumoniae clinical isolates assessed as percent susceptible isolates by broth microdilution method in presence of clavulanate.
In test [10] the test system is Streptococcus pneumoniae. Nature of the test: Antimicrobial activity against penicillin-susceptible Streptococcus pneumoniae clinical isolates assessed as percent susceptible isolates by broth microdilution method in presence of clavulanate.
For test [11], the system named is Streptococcus pneumoniae. Kind of test: Antimicrobial activity against Streptococcus pneumoniae clinical isolates assessed as percent susceptible isolates by broth microdilution method in presence of clavulanate.
Test [12] relates to Streptococcus pneumoniae. Kind of test: Antimicrobial activity against Streptococcus pneumoniae clinical isolates assessed as resistant isolates by broth microdilution method in presence of clavulanate.

Structures are written as SMILES.

As a reminder, the MIC90 is the lowest concentration that inhibits either 90% of growth or 90% of the strains tested, depending on the study. Turning to `CC1(C)S[C@@H]2[C@H](NC(=O)[C@H](N)c3ccc(O)cc3)C(=O)N2[C@H]1C(=O)O` [AMOXICILLIN], the MIC90 was 0.03 µg/mL in the test on Streptococcus pneumoniae [1], 2 µg/mL in the test with Streptococcus pneumoniae [2], 8 µg/mL in the test with Streptococcus pneumoniae [3] and 1 µg/mL in the test on Streptococcus pneumoniae [8]. In addition, the Activity with Streptococcus pneumoniae [4] worked out at 10.1%; with Streptococcus pneumoniae [5], 0%; with Streptococcus pneumoniae [6] it was 0%; with Streptococcus pneumoniae [7], 99.5%; in the test with Streptococcus pneumoniae [9] it was 53.4%; in the test with Streptococcus pneumoniae [10] it was 100%. Besides, the Activity worked out at 93.1% in the test on Streptococcus pneumoniae [11] and 1.5% in the test on Streptococcus pneumoniae [12].
